Entries after “also recorded” stand apart in the source; their conditions may differ. Where a SMILES comes first, the peptide text is derived from it.
Assays:
Candida albicans = format: cell-based
Method: (§1) Isolates used in this study included Candida albicans (ATCC 28367), three fluconazole sensitive mucosal isolates of C. albicans, designated A-22, A-111 and A-155, three fluconazole resistant mucosal isolates of C. albicans designated A-46, A-5, and A-20, and a blood isolate of C. albicans designated WDO. Isolates were stored frozen at −70° C. and streaked onto Sabouraud Dextrose Agar (Sigma, St. Louis, Mo.) plates and maintained on plates at 4° C., with subculturing onto new plates approximately every 10 days for the duration of the studies. Fluconazole resistance was evaluated. Three clinical isolates of C. glabrata, two clinical isolates of C. dubliniensis, and single isolate each of C. krusei, C. guilliermondii, C. parapsilosis, C. pseudotropicalis and C. tropicalis and two isolates of Saccharomyces cerevisiae were also used in this study and were maintained on Sabouraud Dextrose agar plates at 4° C. A single yeast colony was cultured overnight at 33° C. in 1% phytone peptone broth (Becton Dickinson, Sparks Md.) with 0.1% D-glucose (Sigma).
Stock solutions of all peptides were made up at concentrations of 1 mg/ml in sterile endotoxin-free water for irrigation (Baxter, Deerfield, Ill.). Subsequent dilutions were all made in tryptone saline pH 5.5 (Shafer et al., Infect Immun, 1984). An aliquot (100 μl) of an overnight culture of a single colony grown at 33° C. in 1% phytone peptone broth with 0.1% glucose was subcultured in 5 ml of 1% phytone peptone broth with 0.1% glucose and incubated in a shaking water bath (80 oscillations per min, Precision, Winchester, Va.) for 90 min at 33° C. to yield a logarithmic culture. […] The optical density was read and the culture adjusted to 500 blastospores/100 μl in tryptone saline pH 5.5 (Shafer et al., Infect Immun, 1984). To 100 μl of the organism suspension in a 96 well sterile polystyrene microtiter plate (Becton Dickinson, Franklin Lakes, N.J.) was added 100 μl of the peptide (final concentrations 400 μg/ml and 200 μg/ml) or 100 μl of tryptone saline. The latter served as a control. The microtiter plate was incubated at 37° C. for 4 hr and 100 μl of the contents from each well was plated on Sabouraud Dextrose agar plates and incubated at 37° C. overnight. The colony forming units (cfu) were counted and the fungicidal activity was expressed as percent killed and calculated according to the following equation: [(control cfu−test cfu)/control cfu]×100=% killed. Control cfu is indicated by the number of colonies present after […] of incubation in tryptone saline alone in the absence of peptide. Test cfu is determined by counting the number of colonies present after incubation in tryptone saline containing the peptide. Each experimental point was performed in triplicate.
C. albicans (ATCC 28367) was used to standardize the in vitro killing assay. We explored the optimal growth conditions (temperature and time, 25° C. for 5 h and 33° C. for 90 min), numbers of blastospores per well (200, 400, 500, 600, 800, and 1000 cfu), range of peptide concentrations (750, 500, 400, 200 and 100 μg/ml) and the contact time between peptide and Candida (1, 2 and 4 hr) for killing to occur. […] The 90 minute incubation was more convenient technically and was therefore employed routinely. The optimum numbers of cfu per well was determined to be 500 and an incubation time of 4 hr at 37° C. between Candida and peptide was required to obtain optimal killing.

C. tropicalis = assay: In vitro candidacidal assay, C. tropicalis; format: cell-based; settings: 400 μg/ml (150 μM)
Method: as §1
(§2) Stock solutions of all peptides were made up at concentrations of 1 mg/ml in sterile endotoxin-free water for irrigation (Baxter, Deerfield, Ill.). Subsequent dilutions were all made in tryptone saline pH 5.5 (Shafer et al., Infect Immun, 1984). […] The optical density was read and the culture adjusted to 500 blastospores/100 μl in tryptone saline pH 5.5 (Shafer et al., Infect Immun, 1984). […] The colony forming units (cfu) were counted and the fungicidal activity was expressed as percent killed and calculated according to the following equation: [(control cfu−test cfu)/control cfu]×100=% killed. […] Test cfu is determined by counting the number of colonies present after incubation in tryptone saline containing the peptide. […]

C. dubliniensis = assay: In vitro candidacidal assay, C. dubliniensis; format: cell-based; settings: two isolates; 400 μg/ml (150 μM)
Method: as §1, §2

C. glabrata = assay: In vitro candidacidal assay, C. glabrata; format: cell-based; settings: one isolate of three; 400 μg/ml (150 μM)
Method: as §1, §2

[1] = system: C. albicans (fluconazole sensitive isolate); assay: FUN-1 vital dye yeast viability, confocal microscopy, C. albicans; format: cell-based, Candida albicans; settings: 400 μg/ml, 37° C. for 2 hr
Method: Yeast viability was also assessed using the FUN-1 Live/Dead Yeast Viability Kit (Molecular Probes, Eugene, Oreg.). The methodology employed was essentially according to the protocol provided by the vendor for use with fluorescent microscopy. Briefly, yeast cultures were prepared exactly as stated above. C. glabrata, C. pseudotropicalis, C. albicans (fluconazole sensitive isolate) and S. cerevisiae (5×10^5 cfu in 100 μl of tryptone saline) were incubated (37° C. for 2 hr) in the absence or presence of peptide (CAP37(20-44)nat and CAP37(20-44)ser26/42) at a final concentration of 400 μg/ml. At the end of the incubation period, the samples were transferred to microcentrifuge tubes and centrifuged (10,000×g for 3 min at room temperature). The supernatant was removed and the pellet resuspended in 25 μl of GH solution (2% D-glucose containing 10 mM Na-HEPES, pH 7.2) as described in the technical data sheet provided by the vendor. A working solution of the FUN-1 reagent (100 μl of 10 μM) was prepared from 10 mM stock solution and 25 μl (final concentration 5 μM) added to the yeast and incubated at room temperature for 30 min. A sample (10 μl) was placed on a microscope slide and staining observed under a Leica TCS NT confocal microscope using Ar-488 and Kr-568 Lasers and 63x Plan APO 1.2 NA water immersion objective. Images were scanned and analyzed using the Leica TCS software.

[2] = system: Salmonella typhimurium, Escherichia coli, and Pseudomonas aeruginosa; settings: Gram negative organisms; cited from earlier work
[3] = system: E. coli lipopolysaccharide (LPS); settings: conscious rat; cited from earlier work

SMILES: CC[C@H](C)[C@H](NC(=O)[C@H](CC(C)C)NC(=O)[C@H](C)NC(=O)CNC(=O)CNC(=O)[C@H](CS)NC(=O)[C@H](Cc1ccccc1)NC(=O)[C@H](Cc1c[nH]cn1)NC(=O)[C@H](CCCNC(=N)N)NC(=O)CNC(=O)[C@H](CCC(N)=O)NC(=O)[C@@H](N)CC(N)=O)C(=O)N[C@@H](Cc1c[nH]cn1)C(=O)N[C@@H](C)C(=O)N[C@@H](CCCNC(=N)N)C(=O)N[C@@H](Cc1ccccc1)C(=O)N[C@H](C(=O)N[C@@H](CCSC)C(=O)N[C@H](C(=O)N[C@@H](C)C(=O)N[C@@H](C)C(=O)N[C@@H](CO)C(=O)N[C@@H](CS)C(=O)N[C@@H](Cc1ccccc1)C(=O)N[C@@H](CCC(N)=O)C(=O)O)[C@@H](C)O)C(C)C [CAP37(20-44)nat, NQGRHFCGGALIHARFVMTAASCFQ] (H-NQGRHFCGGALIHARFVMTAASCFQ-OH; N-terminus and C-terminus assumed)
- killing (Candida albicans): > 75%
- killing with varying peptide concentrations (Candida albicans; C. albicans ATCC 28367, 750, 500, 400, 200 and 100 μg/ml): Dose dependent killing
- killing of blood isolate of Candida (Candida albicans; blood isolate of C. albicans, 400 μg/ml (150 μM)): killed
- peptide concentration required for activity (Candida albicans; fluconazole resistant isolate A-46): 400 µg/mL
- activity at the lower concentration (Candida albicans; fluconazole resistant isolates A-5 and A-20, 200 μg/ml or 75 μM): significant activity
- activity against C. albicans (Candida albicans; in vitro killing efficacy): significant activity
- fungicidal or fungistatic effect (Candida albicans; isolates A-5, A-20, A-46 and A-155, viable colony counts versus starting inoculum): fungicidal rather than fungistatic
- activity against fluconazole resistant isolates (Candida albicans; isolates A-5 and A-20): highly active
- activity against fluconazole sensitive isolates (Candida albicans; isolates A-155, A-22 and A-111, 400 μg/ml): strongly active
- activity against C. tropicalis (C. tropicalis): killed
- activity against C. dubliniensis (C. dubliniensis): effective against both isolates of C. dubliniensis and one isolate of C. glabrata, although to a lesser extent
- activity against C. glabrata (C. glabrata): effective against both isolates of C. dubliniensis and one isolate of C. glabrata, although to a lesser extent
- blastoconidia stained green or green-yellow (dead) [1]: 70-80%
- bactericidal activity [2]: potent bactericidal activity; also recorded: mimicked the antimicrobial activity of the native molecule
- efficacy against lethal effects of LPS [3]: attenuating the lethal effects
